# Test results published in patent US9173972B2, “Methods and compositions for promoting wound healing” (priority 2005, dated 2015).
# How the values were obtained:
# [1] = system: surface ulcers of Koi (multiple antibiotic-resistant pathogenic species); experiment: Immersion bath treatment of Koi suffering from surface ulcers; type: in vivo, Koi (Cyprinus carpio); conditions: antibiotic injected directly into the fish, before the bath treatment
# Method: An immersion treatment of the infected animals of 5 to 10 minutes on alternate days over a six day period promoted healing of most ulcers.
# All of the treated fish had previously been given injections of Azactam, Baytril, and Amikacin. […] Among the species of bacteria found in the ulcers of the fish were representatives of the genera Aeromonas, Proteus, Klebsiella, Staphylococcus, Streptococcus, Enterobacter and Flavobacterium.
# All fish were housed in a communal “hospital tank” before treatment and moved to an isolation tank after each treatment. The temperature of the bath was adjusted to that of the hospital tank temperature, 24 C, and adequate aeration was supplied to the treatment tank. Eight of the fish had external ulcers of various dimensions. Two of the fish were dropsied.
# Staphylococcus aureus = experiment: MIC/MBC microtiter dilution and checkerboard of EDTA-Tris and neomycin; type: cell-based
# Method: (§1) This example describes a method for determining the FIC values set forth in Example 4. […] Agents and Chem. pp. 210-217 (1967); and Sparks et al., Vet. Res. Comm. 18:241-249 (1994). Each of the foregoing publications are incorporated herein by reference.
# (§2) Then 0.05 ml of an 18-hour old culture of a test organism, containing […] colony-forming units (CFU) ml, were added to each well. Controls for the culture and media were included in each plate. Plates were covered and incubated at 37° C. for 18-24 hours.
# (§3) To generate isobolograms, FICs of the two test solutions were plotted individually on the x-axis and y-axis to determine the effect of combining the two test solutions on bacterial growth. A line that curves away from the zero point and the coordinates indicated antagonism. […] Goodman and Gilman, pp. 1085-1086 (Macmillan Publishing Co., New York, 1985); Sabath, L. D., Antimicrob. Agents and Chem. pp. 210-217 (1967) and incorporated herein by reference in their entireties.
# (§4) 307 (pub: Am. Soc. Microbiol. Williams and Wilkins, Baltimore 1970), incorporated herein by reference in its entirety.
# Pseudomonas aeruginosa [2] = experiment: as above; type: cell-based
# Method: as §1, §2, §3, §4
# Enterococcus faecalis = experiment: as above; type: cell-based
# Method: as §1, §2, §3, §4
# Aeromonas caviae = experiment: MIC and FIC of EDTA and neomycin, Aeromonas isolated from ulcerated fish; type: cell-based; conditions: A. caviae; EDTA in 50 mM Tris
# Method: (§5) This example describes a method for determining the FIC values set forth in Example 4. […] Agents and Chem. pp. 210-217 (1967); and Sparks et al., Vet. Res. Comm. 18:241-249 (1994). Each of the foregoing publications are incorporated herein by reference. […] Then 0.05 ml of an 18-hour old culture of a test organism, containing […] colony-forming units (CFU) ml, were added to each well. Controls for the culture and media were included in each plate. Plates were covered and incubated at 37° C. for 18-24 hours. A numerical score or Fractional Inhibitory Concentration (FIC) index was determined. The FIC index is equal to the sum of the values of FIC for the individual drugs: An FIC index greater than 1.0 indicated an antagonistic interaction, an FIC index of 1.0 indicated addition, and an FIC index of less than or equal to 0.5 indicated synergism between the two test agents.
# Aeromonas sobria = experiment: as above; type: cell-based; conditions: A. sobria; EDTA in 50 mM Tris
# Method: as §5
# [3] = system: Staphylococcus aureus isolated from burn patients; experiment: Antibiotic resistance profile, disc diffusion method; note: key: R = resistant; I = intermediate; S = sensitive; type: cell-based; conditions: S. aureus
# [4] = system: Enterococcus faecalis isolated from burn patients; experiment: as above; type: cell-based; conditions: E. faecalis; note: key: R = resistant; I = intermediate; S = sensitive
# [5] = system: Pseudomonas aeruginosa isolated from burn patients; experiment: as above; type: cell-based; conditions: P. aeruginosa; note: key: R = resistant; I = intermediate; S = sensitive
# [6] = system: Pseudomonas aeruginosa isolated from a human burn patient; experiment: MIC and MBC of Tris, EDTA, cocamidopropyl betaine and silver combinations; type: cell-based; conditions: P. aeruginosa (human burn isolate); multiple of the 1x stock solution of the tested composition
# [7] = system: Staphylococcus aureus isolated from a human burn patient; experiment: as above; type: cell-based; conditions: S. aureus (human burn isolate); multiple of the 1x stock solution of the tested composition
# Malassezia pachydermatis = experiment: MIC and MBC, isolates from dogs with otitis externa and pyoderma; type: cell-based; conditions: M. pachydermatis; multiple of the 1x stock solution of the tested composition
# Method: (§6) The formulation was tested against Pseudomonas aeruginosa, Proteus mirabilis, Escherichia coli, Staphylococcus intermedius, Malessezia pachydermatis, and Candida albicans.
# Proteus mirabilis = experiment: as above; type: cell-based; conditions: P. mirabilis; multiple of the 1x stock solution of the tested composition
# Method: as §6
# [8] = system: Escherichia coli isolated from a dog with otitis externa; experiment: as above; type: cell-based; conditions: E. coli
# Method: as §6
# Candida albicans = experiment: as above; type: cell-based; conditions: C. albicans; multiple of the 1x stock solution of the tested composition
# Method: as §6
# [9] = system: Staphylococcus intermedius; experiment: as above; type: cell-based; conditions: S. intermedius; multiple of the 1x stock solution of the tested composition
# Method: as §6
# Pseudomonas aeruginosa [10] = experiment: as above; type: cell-based; conditions: P. aeruginosa (dog isolate); multiple of the 1x stock solution of the tested composition
# Method: as §6
# [11] = EDTA co-administered with neomycin in 50 mM Tris
# [12] = multiple of the 1x stock solution of the tested composition
# [13] = neomycin co-administered with EDTA in 50 mM Tris
molecule,measurement,setting,value
NCC[C@H](O)C(=O)N[C@@H]1C[C@H](N)[C@@H](O[C@H]2O[C@H](CN)[C@@H](O)[C@H](O)[C@H]2O)[C@H](O)[C@H]1O[C@H]1O[C@H](CO)[C@@H](O)[C@H](N)[C@H]1O [Amikacin],healing of visible ulcers,[1],failed to heal visible ulcers
C[C@H]1[C@H](NC(=O)/C(=N\OC(C)(C)C(=O)O)c2csc(N)n2)C(=O)N1S(=O)(=O)O [Azactam],healing of visible ulcers,[1],failed to heal visible ulcers
CCN1CCN(c2cc3c(cc2F)c(=O)c(C(=O)O)cn3C2CC2)CC1 [Baytril],healing of visible ulcers,[1],failed to heal visible ulcers
"O=C(O)CN(CCN(CC(=O)O)CC(=O)O)CC(=O)O [EDTA, ethylenediaminetetraacetate]","MBC, Co-administered",Staphylococcus aureus; [11],3.9 mM
same,"MBC, Individually Administered",Pseudomonas aeruginosa [2]; EDTA alone in 50 mM Tris,250 mM
same,"MBC, Co-administered",Pseudomonas aeruginosa [2]; [11],20.0 mM
same,"MBC, Individually Administered",Enterococcus faecalis; EDTA alone in 50 mM Tris,250 mM
same,"MBC, Co-administered",Enterococcus faecalis; [11],62.5 mM
same,"MIC, EDTA alone",Aeromonas caviae,<0.49
same,"MIC, EDTA alone",Aeromonas sobria,15.6
"CN[C@H](CC(C)C)C(=O)N[C@H]1C(=O)N[C@@H](CC(N)=O)C(=O)N[C@H]2C(=O)N[C@H]3C(=O)N[C@H](C(=O)N[C@H](C(=O)O)c4cc(O)cc(O)c4-c4cc3ccc4O)[C@H](O)c3ccc(c(Cl)c3)Oc3cc2cc(c3O[C@@H]2O[C@H](CO)[C@@H](O)[C@H](O)[C@H]2O[C@H]2C[C@](C)(N)[C@H](O)[C@H](C)O2)Oc2ccc(cc2Cl)[C@H]1O [Va, vancomycin]",Antibiotic resistance profile,[3],S
same,Antibiotic resistance profile,[4],R
same,Antibiotic resistance profile,[5],R
cocamidopropyl betaine,MBC,[6],0.5x
same,MIC,[6],0.25x
same,MBC,[7],0.001x
same,MIC,[7],0.001x
same,MBC,Malassezia pachydermatis,0.003x
same,MIC,Malassezia pachydermatis,0.001x
same,MBC,Proteus mirabilis,0.5x
same,MIC,Proteus mirabilis,0.25x
same,MBC,[8],50% of stock solution
same,MIC,[8],25% of stock solution
same,MBC,[8]; [12],0.5x
same,MIC,[8]; [12],0.25x
same,MBC,Candida albicans,0.003x
same,MIC,Candida albicans,0.001x
same,MBC,[9],0.001x
same,MIC,[9],0.001x
same,MBC,Pseudomonas aeruginosa [10],0.5x
same,MIC,Pseudomonas aeruginosa [10],0.25x
gentamicin [GM],Antibiotic resistance profile,[3],S
same,Antibiotic resistance profile,[4],R
same,Antibiotic resistance profile,[5],I
neomycin,Antibiotic resistance profile,[3],R
same,Antibiotic resistance profile,[4],R
same,Antibiotic resistance profile,[5],R
same,"MBC, Co-administered",Staphylococcus aureus; [13],1560 µg/mL
same,"MBC, Individually Administered",Pseudomonas aeruginosa [2]; neomycin alone in 50 mM Tris,5000 µg/mL
same,"MBC, Co-administered",Pseudomonas aeruginosa [2]; [13],40 µg/mL
same,"MBC, Individually Administered",Enterococcus faecalis; neomycin alone in 50 mM Tris,25000 µg/mL
same,"MBC, Co-administered",Enterococcus faecalis; [13],6250 µg/mL
oxacillin/methicillin,Antibiotic resistance profile,[3],R
same,Antibiotic resistance profile,[4],R
same,Antibiotic resistance profile,[5],R
